Measurements: patent US5739158A, “Nitrogen-containing cyclohetero cycloalkylaminoaryl derivatives for CNS disorders” (The United States of America as represented by the …, priority 1992, dated 1998)
“And” between values parts separate entries of the source, which are not always exact repeats. Equal entries are not always repeated. “Also recorded” adds a separate entry of the source. Where two headings read alike, the source gives them in different places.

Columns and labels:
[1] = tested on: NMDA receptor; conditions: C. Carter et al, 1988; cited from earlier work
[2] = tested on: substantia nigra; assay: Circling behavior assay, intranigral microinjection; format: in vivo, rat; conditions: for Net Turns (individual rat): individual subjects
Protocol: In order to assess the utility of compounds of the invention in treatment of Parkinsonism, the ability of the compound to stimulate movement following microinjections in the substantia nigra was assessed. Parkinson's disease results from the degeneration of dopamine-secreting neurons in the substantia nigra resulting in a reduced ability to generate movement. […] Such a stimulatory action would predict increased ability to generate voluntary movement in Parkinson's patients showing decreased functionality of this brain area. Current treatments of Parkinson's disease also stimulate this brain area, but show significant side effects that may not be present in compounds of the invention. […] It is expected, therefore, that compounds of the invention would have clinical utility in the treatment of Parkinson's disease and other disorders in which there is a paucity of movement.
Three to seven days before behavioral testing, each animal (245-350 g, N=57) was anesthetized with 50 mg/kg sodium pentobarbital and mounted in a Narishige stereotaxic apparatus. A guide cannula, constructed from 24 gauge thinwall stainless steel tubing, was implanted with its tip 4.0 mm above the left substantia nigra pars reticulata (coordinates: 3.2 mm anterior; 2.2 mm lateral; 4.7 mm ventral), from lambda and the skull surface. Cannulae were secured with stainless steel screws and dental acrylic. Stainless steel stylers kept the cannulae sealed except during drug infusion. All drugs were prepared on the day of testing. Animals were gently restrained and the drugs were administered in a volume of 0.5 ul over 72 seconds through a 31 gauge microneedle that was constructed to extend 4.0 mm beyond the tips of the guide cannulae. […] Animals received a single injection of saline (n=6), 1.5 nmol (n=5), 3.7 nmol (n=6), 9.3 nmol (n=7 or 14.9 nmol (n=5) in 0.5 ul 0.9% NaCl. Following injection, each animal was fitted with a harness which was connected to an optical position transducer interfaced to a compouter that derived the number and direction of half turns for 30 min. Each rat received a single injection of the test drug to minimize tissue damage. Rats were sacrificed by an overdose of sodium pentobarbital and perfused intracardially with 10% formalin. Brains were fixed in a 30% sucrose-formalin solution and coronal sections (40 um) were taken throughout the extent of the injection site. The sections were stained with cresyl violet and examined under a microscope to localize injection sites. Only subjects with histologically confirmed injection sites were used in the data analyses. For the studies of circling behavior, the number of net (contalateral-isolateral) rotations were computed for each rat and subjected to analysis of variance. […] Results showing contralateral circling behavior produced by intranigral microinjections of various doses of Compound #1 are reported in Table IV and illustrated in FIG. 1.
Individual subjects are shown along with the average and standard deviation of the effect.

[3] = target: T1, sigma receptors (Cavia porcellus, UniProt Q60492); assay: Radioreceptor assay in guinea pig brain homogenate (P2 membranes), [3H]-(+)-3-PPP; format: binding
T1 construct: crude synaptosomal (P2) membrane fraction of guinea pig brain for sigma receptors; tissue Pel-Freeze, Rogers, Ak; host or cells: guinea pig brain minus cerebellum, crude synaptosomal (P2) membranes
T1 sequence (Q60492 whole entry): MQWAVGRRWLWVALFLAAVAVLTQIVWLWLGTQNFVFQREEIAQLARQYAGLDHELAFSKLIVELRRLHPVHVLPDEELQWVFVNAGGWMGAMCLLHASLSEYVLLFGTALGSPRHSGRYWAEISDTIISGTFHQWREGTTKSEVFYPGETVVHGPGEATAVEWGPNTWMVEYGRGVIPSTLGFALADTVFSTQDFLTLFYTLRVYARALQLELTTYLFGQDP

[4] = target: T2, sigma receptor (Rattus norvegicus, UniProt Q9R0C9); assay: Radioreceptor assay in rat brain homogenate, displacement of [3H]-(+)-3-PPP; format: binding; conditions: for Ki: rat brain membranes, 2 nM [3H]-(+)-3-PPP, 1 hr, room temperature, units ± SEM, read-out: Ki apparent
T2 construct: Brains from male Sprague-Dawley rats were homogenized; from tissue; host or cells: rat brain crude membranes (male Sprague-Dawley)
T2 sequence (Q9R0C9 whole entry): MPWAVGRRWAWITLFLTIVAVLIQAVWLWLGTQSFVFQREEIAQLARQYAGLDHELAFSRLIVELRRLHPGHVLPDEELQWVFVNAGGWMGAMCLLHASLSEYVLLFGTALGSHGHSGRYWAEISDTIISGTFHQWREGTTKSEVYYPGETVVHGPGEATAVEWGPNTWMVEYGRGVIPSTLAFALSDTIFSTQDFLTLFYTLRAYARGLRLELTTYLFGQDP
Protocol: Acad. Sci., 83, 8784-8788, 1986] to determine the relative potency of the compounds interacting with the sigma receptor. To determine the effects of the compounds in a sigma receptor assay, crude membrane preparations were prepared as follows. Brains from male Sprague-Dawley rats were homogenized in 10 volumes (wt/vol) of 0.32M sucrose, using a Polytron grinder. The homogenate was centrifuged at 900×G for 10 minutes at 4° C. The supernatant was collected and centrifuged at 22,000×g for 20 minutes at 4° C. The pellet was resuspended in 10 volumes of 50 mM Tris/HCl buffer (pH 7.4) and centrifuged at 22,000×g for 20 minutes at 4° C. The pellet was resuspended in 5 mM Tris/HCl buffer (pH 7.4) to give a final concentration of 250 mg/ml of the crude material. Incubation tubes were prepared in triplicate and contained 0.1 ml of tissue suspension, 2 nM of [^3 H]-(+)-1-propyl-3-(3-hydroxyphenyl)piperidine {[^3 H]-3-(+)-PPP}, and varying concentrations of the displacing ligand (0.1-1000 nM) in a final volume of 0.5 ml. After a 1 hr incubation at room temperature, the contents of the test tubes were filtered through GS filter paper which had been presoaked for at least 2 hours in 0.05% polyethyleneamine. The test tubes were rinsed three times with Tris/HCl buffer. Radioactivity on the filters was determined and […] were calculated from inhibition curves using the method of Cheng and Prusoff [Biochem. Pharmacol., 22, 3099-3108, 1973].

In the case of “1-(4-chlorophenyl)-2-[1-(4-fluorophenyl)piperidinyl]ethanol”, the “NMDA receptor antagonism (in words)” value [1] is given as “non-competitive NMDA receptor antagonists”.
With `CN(CCc1ccc(Cl)c(Cl)c1)[C@@H]1CCCC[C@@H]1N1CCCC1` (racemic) [Compound No. 1, (±)-cis-N-[2-(3,4-dichlorophenyl)ethyl]-N-methyl-2-(1-pyrrolidinyl)cyclohexylamine] the “Net Turns, Average” value ([2]; dose 1.49 nmol, Stan Dev 18.94) was 11.00 1/2 contralateral rotations ne, the “Net Turns (individual rat)” value ([2]; dose 1.49 nmol) was 25.00 1/2 contralateral rotations ne and 17.00 1/2 contralateral rotations ne and 5.00 1/2 contralateral rotations ne and 4.00 1/2 contralateral rotations ne and 38.00 1/2 contralateral rotations ne and the “Net Turns, Average” value ([2]; dose 3.72 nmol, Stan Dev = 7.87) was 18.33 1/2 contralateral rotations ne. The “Net Turns (individual rat)” value ([2]; dose 3.72 nmol) was 13.00 1/2 contralateral rotations ne and 23.00 1/2 contralateral rotations ne and 5.00 1/2 contralateral rotations ne and 28.00 1/2 contralateral rotations ne and 25.00 1/2 contralateral rotations ne and 16.00 1/2 contralateral rotations ne, the “Net Turns, Average” value ([2]; dose 9.3 nmol, Stan Dev 21.46) was 38.14 1/2 contralateral rotations ne and the “Net Turns (individual rat)” value ([2]; dose 9.3 nmol) was 28.00 1/2 contralateral rotations ne and 20.00 1/2 contralateral rotations ne and 46.00 1/2 contralateral rotations ne and 87.00 1/2 contralateral rotations ne and 30.00 1/2 contralateral rotations ne and 22.00 1/2 contralateral rotations ne and 34.00 1/2 contralateral rotations ne. The “Net Turns, Average” value ([2]; dose 14.9 nmol, Stan Dev = 27.08) was 31.00 1/2 contralateral rotations ne, the “Net Turns (individual rat)” value ([2]; dose 14.9 nmol) was 6.00 1/2 contralateral rotations ne and 58.00 1/2 contralateral rotations ne and 13.00 1/2 contralateral rotations ne and 61.00 1/2 contralateral rotations ne and 7.00 1/2 contralateral rotations ne and 75.00 1/2 contralateral rotations ne and 24.00 1/2 contralateral rotations ne and 4.00 1/2 contralateral rotations ne and the “Circling behavior compared to saline control” value ([2]; intranigral microinjection 1.5-14.9 nmol, F4,27=3.09, p=0.032) was “significant dose-related increases in circling behavior; also recorded: increasing doses of Compound #1 produce marked effects, which are statistically significant”. The “Doses producing circling compared with (+)-pentazocine” value ([2]; intranigral, (+)-pentazocine data published previously) was “doses lower than those necessary to produce the effect with (+)-pentazocine”, the Ki [3] was 1.8 ± 0.4 nM and the “Binding to sigma receptors (in words)” value [4] was “binds to sigma receptors”. It also gave a Ki [4] of 230 ± 70 nM.
`CN(CCc1ccccc1)[C@@H]1CCCC[C@@H]1N1CCCC1` (racemic) [compound 9, (±)-cis-N-methyl-N-(2-phenylethyl)-2-(1-pyrrolidinyl)cyclohexylamine] gave a Ki [3] of 113 ± 8 nM.
`CN(CCc1ccc2ccccc2c1)[C@@H]1CCCC[C@@H]1N1CCCC1` (racemic) [compound 10, (±)-cis-N-methyl-N-[2-(β-naphthyl)ethyl]-2-(1-pyrrolidinyl)cyclohexylamine] showed a Ki ([3]; guinea pig brain P2 membranes, 3 nM [3H]-3-PPP, pH 8.0, 120 min, 25° C., units ± SEM, read-out: Ki) of 33 ± 5 nM.
Molecule `CN(Cc1ccc(Cl)c(Cl)c1)[C@@H]1CCCC[C@@H]1N1CCCC1` (relative stereo) [compound 17, (±)-cis-N-[2-(3,4-dichlorophenyl)methyl]-N-methyl-2-(1-pyrrolidinyl)cyclohexylamine] has a Ki [3] of 1.2 ± 0.03 nM.
Molecule `CN(CCc1ccc(Cl)c(Cl)c1)[C@H]1CCCC[C@H]1N1CCCC1` [Compound No. 7, 1S,2R-(-)-cis-N-[2-(3,4-dichlorophenyl)ethyl]-N-methyl-2-(1-pyrrolidinyl)cyclohexylamine] has a Ki [3] of 1.3 ± 0.3 nM and a Ki [4] of 30 ± 10 nM.
`CCCN(CCc1ccc(Cl)c(Cl)c1)[C@@H]1CCCC[C@@H]1N1CCCC1` [compound 4, (1R,2S)-(-)-cis-N-[2-(3,4-dichlorophenyl)-ethyl]-N-(n-propyl)-2-(1-pyrrolidinyl)cyclohexylamine] showed a Ki [3] of 56 ± 9.9 nM.
For `CCN(CCc1ccc(Cl)c(Cl)c1)[C@@H]1CCCC[C@@H]1N1CCCC1` [compound 5, (1R,2S)-(-)-cis-N-ethyl-N-[2-(3,4-dichlorophenyl)ethyl]-2-(1-pyrrolidinyl)cyclohexylamine], the Ki [3] was 3.5 ± 1 nM.
With `CN(CCc1ccc2c(c1)OCO2)[C@H]1CCCC[C@H]1N1CCCC1` [compound 11, 1S,2R-(-)-cis-N-methyl-N-[2-(3,4-methylenedioxyphenyl)ethyl]-2-(1-pyrrolidinyl)cyclohexylamine] the Ki [3] was 90 ± 20 nM.
With `CN(CCc1ccc2c(c1)OCO2)[C@@H]1CCCC[C@@H]1N1CCCC1` [compound 12, 1R,2S-(+)-cis-N-methyl-N-[2-(3,4-methylenedioxyphenyl)ethyl]-2-(1-pyrrolidinyl)cyclohexylamine] the Ki [3] was 31 ± 0.05 nM.
`CCN(CCc1ccc(Cl)c(Cl)c1)[C@H]1CCCC[C@H]1N1CCCC1` [compound 14, 1S,2R-(-)-cis-N-[2-(3,4-dichlorophenyl)ethyl]-N-ethyl-2-(1-pyrrolidinyl)cyclohexylamine] showed a Ki [3] of 3.1 ± 0.55 nM.
With `CCCN(CCc1ccc(Cl)c(Cl)c1)[C@H]1CCCC[C@H]1N1CCCC1` [compound 16, 1S,2R-(-)-cis-N-[2-(3,4-dichlorophenyl)ethyl]-N-(1-propyl)-2-(1-pyrrolidinyl)cyclohexylamine] the Ki [3] was 140 ± 17 nM.
In the case of `CC(C(O)c1ccc(O)cc1)N1CCC(Cc2ccccc2)CC1` (centres unmarked) [ifenprodil], the “NMDA receptor antagonism (in words)” value [1] is given as “non-competitive NMDA receptor antagonists”.
